Patent US7763615B2, “Ecteinascidin analogs for use as antitumour agents” (priority 2001, dated 2010)
Read-outs that look alike come from different tables or passages of the source.

Experiments:
Format in all cases: cell-based
HT29 = test: cells; conditions: Homo sapiens, HT-29, 48 h
Excerpt: (§1) The finality of these assays is to interrupt the growth of a “in vitro” tumor cell culture by means of a continued exhibition of the cells to the sample to be testing.
(§2) A colorimetric type of assay, using sulphorhodamine B (SRB) reaction has been adapted for a quantitative measurement of cell growth and viability [following the technique described by Philip Skehan, et al. (1990), New colorimetric cytotoxicity assay for anticancer drug screening, J. Natl. Cancer Inst., 82:1107-1112]
(§3) This form of the assay employs 96 well cell culture microplates of 9 mm diameter (Faircloth, 1988; Mosmann, 1983). Most of the cell lines are obtained from American Type Culture Collection (ATCC) derived from different human cancer types.
(§4) Cells are maintained in RPMI 1640 10% FBS, supplemented with 0.1 g/l penicillin and 0.1 g/l streptomycin sulphate and then incubated at 37° C., 5% CO2 and 98% humidity. For the experiments, cells were harvested from subconfluent cultures using trypsin and resuspended in fresh medium before plating.
(§5) Cells are seeded in 96 well microtiter plates, at 5×10^3 cells per well in aliquots of 195 μl medium, and they are allowed to attach to the plate surface by growing in drug free medium for 18 hours. Afterward, samples are added in aliquots of 5 μl in a ranging from 10 to 10^−8 μg/ml, dissolved in DMSO/EtOH/PBS (0.5:0.5:99). After 48 hours exposure, the antitumor effect are measured by the SRB methodology: cells are fixed by adding 50 μl of cold 50% (wt/vol) trichloroacetic acid (TCA) and incubating for 60 minutes at 4° C. Plates are washed with deionized water and dried. One hundred μl of SRB solution (0.4% wt/vol in 1% acetic acid) is added to each microtiter well and incubated for 10 minutes at room temperature. Unbound SRB is removed by washing with 1% acetic acid. Plates are air dried and bound stain is solubilized with Tris buffer. Optical densities are read on a automated spectrophotometric plate reader at a single wavelength of 490 nm.
(§6) The values for mean+/− SD of data from triplicate wells are calculated. Some parameters for cellular responses can be calculated: GI=growth inhibition, TGI=total growth inhibition (cytostatic effect) and LC=cell killing (cytotoxic effect).

A549 = test: cells; conditions: Homo sapiens, A549, 48 h; for GI50: read-out: GI50; for IC (TGI): read-out: TGI
Excerpt: as §1, §2, §3, §4, §5, §6

H-MEC-1 = test: Inhibition of cells growth by colorimetric assay (SRB), H-MEC-1; conditions: Homo sapiens, H-MEC-1, 48 hours exposure, SRB; for GI50 / IC (TGI): HMEC-1, 48 h; for CC50: HMEC-1, read-out: LC50 (the source's name)
Excerpt: as §1, §2, §3, §4, §5, §6

[1] = HT29, 48 hours exposure, SRB, read-out: LC50 (the source's name)
[2] = A549, 48 hours exposure, SRB, read-out: LC50 (the source's name)

Row | Structure (SMILES) | GI50 (HT29; HT29, 48 hours exposure, SRB) [µM] | IC (TGI) (HT29; HT29, 48 hours exposure, SRB) [µM] | CC50 (HT29; read-out: LC50, HT29, 48 hours exposure, SRB) [µM] | GI50 (A549; A549, 48 hours exposure, SRB) [µM] | IC (TGI) (A549; A549, 48 hours exposure, SRB) [µM] | CC50 (A549; read-out: LC50, A549, 48 hours exposure, SRB) [µM] | CC50 (HT29; [1]) [µM] | CC50 (A549; [2]) [µM] | GI50 (H-MEC-1) [µM] | IC (TGI) (H-MEC-1) [µM] | CC50 (H-MEC-1) [µM]
1 | C=COC(=O)Oc1c(OC)c(C)cc2c1[C@@H]1C3[C@@H]4SC[C@]5(C(=O)COC[C@@H](c6c7c(c(C)c(OC(C)=O)c64)OCO7)N3[C@@H](C#N)[C@H](C2)N1C)c1[nH]c2ccccc2c1CCN5C(=O)OC=C (stereo partly drawn) [Compound 23] | 0.247 | 11.1 | 11.1 | 0.118 | 1.26 | 11.1 |  |  |  |  | 
2 | C=CCOc1c(OC)c(C)cc2c1[C@@H]1C3[C@@H]4SC[C@]5(NCCc6c5[nH]c5ccccc65)C(=O)COC[C@@H](c5c6c(c(C)c(OC(C)=O)c54)OCO6)N3[C@@H](C#N)[C@H](C2)N1C (stereo partly drawn) [Compound 24] | 12.4 | 12.4 |  | 12.4 | 12.4 |  | 12.4 | 12.4 |  |  | 
3 | C=CCOc1c(OC)c(C)cc2c1[C@@H]1C3[C@@H]4SC[C@]5(C(=O)COC[C@@H](c6c7c(c(C)c(OC(C)=O)c64)OCO7)N3[C@@H](C#N)[C@H](C2)N1C)c1[nH]c2ccccc2c1CCN5CC=C (stereo partly drawn) [Compound 25] | 11.8 | 11.8 |  | 11.8 | 11.8 |  | 11.8 | 11.8 |  |  | 
4 | C=CCOc1c(OC)c(C)cc2c1[C@@H]1C3[C@@H]4SC[C@]5(C(=O)COC[C@@H](c6c7c(c(C)c(OC(C)=O)c64)OCO7)N3[C@@H](O)[C@H](C2)N1C)c1[nH]c2ccccc2c1CCN5CC=C (stereo partly drawn) [Compound 49] | 4.5 | 12.6 |  | 2.64 | 4.97 |  | 12.6 | 9.37 | 1.99 | 4.12 | 8.54
5 | CCCC(=O)Oc1c(C)c2c(c3c1[C@H]1SC[C@]4(NCCc5c4[nH]c4ccccc54)C(=O)COC[C@@H]3N3C1[C@H]1c4c(cc(C)c(OC)c4O)C[C@@H]([C@@H]3C#N)N1C)OCO2 (stereo partly drawn) [Compound 52] | 0.0793 | 12.6 |  | 0.047 | 0.126 |  | 12.6 | 943 | 0.347 | 0.00695 | 0.0126
6 | COc1c(C)cc2c(c1O)[C@@H]1C3[C@@H]4SC[C@]5(NCCc6c5[nH]c5ccccc65)C(=O)COC[C@@H](c5c6c(c(C)c(OC(=O)CCCl)c54)OCO6)N3[C@@H](C#N)[C@H](C2)N1C (stereo partly drawn) [Compound 53] | 0.309 | 1.23 |  | 0.261 | 0.784 |  | 12.3 | 12.2 | 0.132 | 12.3 | 12.3
7 | COc1c(C)cc2c(c1O)[C@@H]1C3[C@@H]4SC[C@]5(NCCc6c5[nH]c5ccccc65)C(=O)COC[C@@H](c5c6c(c(C)c(OC(=O)C(F)(F)F)c54)OCO6)N3[C@@H](C#N)[C@H](C2)N1C (stereo partly drawn) [Compound 56] | 0.0474 | 12.2 |  | 0.0093 | 0.236 |  | 12.2 | 3.79 | 0.00417 | 0.00965 | 0.378
8 | COc1c(C)cc2c(c1OC(=O)OC(C)(C)C)[C@@H]1C3[C@@H]4SC[C@]5(NCCc6c5[nH]c5ccccc65)C(=O)COC[C@@H](c5c6c(c(C)c(OC(=O)OC(C)(C)C)c54)OCO6)N3[C@@H](C#N)[C@H](C2)N1C (stereo partly drawn) [Compound 58] | 0.23 | 10.8 |  | 0.0891 | 1.34 |  | 10.8 | 10.8 | 0.0102 | 10.8 | 10.8
9 | C=COC(=O)Oc1c(C)c2c(c3c1[C@H]1SC[C@]4(NCCc5c4[nH]c4ccccc54)C(=O)COC[C@@H]3N3C1[C@H]1c4c(cc(C)c(OC)c4O)C[C@@H]([C@@H]3C#N)N1C)OCO2 (stereo partly drawn) [Compound 59] | 0.0038 | 0.0184 |  | 0.00266 | 2.26 |  | 12.6 | 4.98 | 0.004 | 0.0126 | 12.6
10 | CCCCCCCC(=O)Oc1c(C)c2c(c3c1[C@H]1SC[C@]4(NCCc5c4[nH]c4ccccc54)C(=O)COC[C@@H]3N3C1[C@H]1c4c(cc(C)c(OC)c4O)C[C@@H]([C@@H]3C#N)N1C)OCO2 (stereo partly drawn) [Compound 61] | 11.8 | 11.8 |  | 11.8 | 11.8 |  | 11.8 | 11.8 | 0.394 | 0.805 | 3.4
11 | CCCC(=O)Oc1c(C)c2c(c3c1[C@H]1SC[C@]4(NCCc5c4[nH]c4ccccc54)C(=O)COC[C@@H]3N3C1[C@H]1c4c(cc(C)c(OC)c4O)C[C@@H]([C@@H]3O)N1C)OCO2 (stereo partly drawn) [Compound 63] | 0.00388 | 0.0128 |  | 0.00312 | 0.00953 |  | 12.8 | 3.03 | 0.00272 | 0.0128 | 12.8
12 | C=CCOC(=O)Oc1c(C)c2c(c3c1[C@H]1SC[C@]4(NCCc5c4[nH]c4ccccc54)C(=O)COC[C@@H]3N3C1[C@H]1c4c(cc(C)c(OC)c4O)C[C@@H]([C@@H]3O)N1C)OCO2 (stereo partly drawn) [Compound 64] | 0.00191 | 0.0125 |  | 0.00164 | 0.00683 |  | 12.5 | 0.11 | 0.00031 | 0.0125 | 12.5
13 | COc1c(C)cc2c(c1O)[C@@H]1C3[C@@H]4SC[C@]5(NCCc6c5[nH]c5ccccc65)C(=O)COC[C@@H](c5c6c(c(C)c(OC(=O)OC(C)(C)C)c54)OCO6)N3[C@@H](O)[C@H](C2)N1C (stereo partly drawn) [Compound 65] | 0.000856 | 0.0205 |  | 0.00205 | 0.0063 |  | 12.3 | 0.0479 | 0.000613 | 0.0435 | 12.3
14 | COc1c(C)cc2c(c1OC(C)(C)C)[C@@H]1C3[C@@H]4SC[C@]5(NCCc6c5[nH]c5ccccc65)C(=O)COC[C@@H](c5c6c(c(C)c(OC(=O)OC(C)(C)C)c54)OCO6)N3[C@@H](O)[C@H](C2)N1C (stereo partly drawn) [Compound 66] | 0.028 | 0.113 |  | 0.0209 | 0.0575 |  | 11 | 0.376 | 0.0207 | 0.0804 | 11
15 | C=COC(=O)Oc1c(C)c2c(c3c1[C@H]1SC[C@]4(NCCc5c4[nH]c4ccccc54)C(=O)COC[C@@H]3N3C1[C@H]1c4c(cc(C)c(OC)c4O)C[C@@H]([C@@H]3O)N1C)OCO2 (stereo partly drawn) [Compound 67] | 0.0019 | 0.128 |  | 0.000455 | 0.00286 |  | 12.8 | 0.128 | 0.000521 | 0.128 | 12.8
